# Measurements as given in patent US9474758B2, “Thienopyrimidinedione derivatives as TRPA1 modulators” (Glenmark Pharmaceuticals S.A., priority 2009, dated 2016).
# Columns and labels:
# [1] = biological target: T1, Human TRPA1 expressing CHO cells (Homo sapiens, UniProt O75762); experiment: 45Calcium uptake assay, inhibition of AITC induced calcium uptake (human); assay type: cell-based; conditions: human TRPA1 CHO cells, AITC 30 μM; for inhibition at 1 µM: compound 1.0 μM, read-out: Percentage inhibition at 1.0 μM; for inhibition at 10 µM: compound 10.0 μM, read-out: Percentage inhibition at 10.0 μM; for IC50: read-out: Human IC50 value (Range)
# T1 construct: expressed in transfected cells; host or cells: CHO cells (G-418 selection)
# Method in brief: (§1)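 CHO cells expressing rat or human TRPA1 were pre-treated with compound for 10 min, then given AITC (30 μM human, 10 μM rat) plus 5 μCi/ml 45Ca2+ for 3 min; final DMSO 0.5%. Lysate radioactivity was counted by scintillation. IC50 came from nonlinear regression of concentration-response curves as % of maximal response.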
# [2] = biological target: T2, Rat TRPA1 expressing CHO cells (Rattus norvegicus, UniProt Q6RI86); experiment: 45Calcium uptake assay, inhibition of AITC induced calcium uptake (rat); assay type: cell-based; conditions: rat TRPA1 CHO cells, AITC 10 μM; for inhibition at 1 µM: compound 1.0 μM, read-out: Percentage inhibition at 1.0 μM; for inhibition at 10 µM: compound 10.0 μM, read-out: Percentage inhibition at 10.0 μM
# T2 construct: expressed in transfected cells; host or cells: CHO cells (Zeocin selection)
# Method in brief: as §1
# T1 sequence (O75762 whole entry): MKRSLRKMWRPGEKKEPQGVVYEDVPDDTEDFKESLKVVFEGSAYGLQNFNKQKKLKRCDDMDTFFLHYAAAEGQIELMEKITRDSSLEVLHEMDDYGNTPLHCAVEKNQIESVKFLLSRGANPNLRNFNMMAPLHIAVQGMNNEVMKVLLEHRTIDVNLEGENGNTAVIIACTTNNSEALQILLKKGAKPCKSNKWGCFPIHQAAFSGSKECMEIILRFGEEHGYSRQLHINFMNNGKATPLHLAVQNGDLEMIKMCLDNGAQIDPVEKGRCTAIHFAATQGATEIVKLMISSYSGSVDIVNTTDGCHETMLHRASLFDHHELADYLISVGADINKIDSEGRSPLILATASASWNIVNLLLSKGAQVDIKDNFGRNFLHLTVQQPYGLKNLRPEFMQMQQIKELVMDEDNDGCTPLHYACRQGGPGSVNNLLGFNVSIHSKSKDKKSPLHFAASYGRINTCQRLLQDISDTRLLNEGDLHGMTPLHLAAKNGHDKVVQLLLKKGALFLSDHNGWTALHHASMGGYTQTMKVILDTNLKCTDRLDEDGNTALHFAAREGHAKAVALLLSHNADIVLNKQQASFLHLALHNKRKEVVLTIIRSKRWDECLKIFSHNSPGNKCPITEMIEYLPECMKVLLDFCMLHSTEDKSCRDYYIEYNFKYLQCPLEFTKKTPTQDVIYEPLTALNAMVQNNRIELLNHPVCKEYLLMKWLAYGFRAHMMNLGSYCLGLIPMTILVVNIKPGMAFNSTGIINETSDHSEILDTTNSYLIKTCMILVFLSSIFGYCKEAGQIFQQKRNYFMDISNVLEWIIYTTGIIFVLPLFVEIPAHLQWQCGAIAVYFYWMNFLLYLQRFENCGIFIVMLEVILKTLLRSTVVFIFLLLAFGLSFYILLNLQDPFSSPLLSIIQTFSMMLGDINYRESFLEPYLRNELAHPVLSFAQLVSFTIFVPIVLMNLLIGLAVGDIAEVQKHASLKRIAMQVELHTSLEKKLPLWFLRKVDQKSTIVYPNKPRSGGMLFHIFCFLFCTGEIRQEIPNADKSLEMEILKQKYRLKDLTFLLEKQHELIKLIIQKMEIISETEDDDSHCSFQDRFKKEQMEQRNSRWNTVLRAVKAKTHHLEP
# T2 sequence (Q6RI86 whole entry): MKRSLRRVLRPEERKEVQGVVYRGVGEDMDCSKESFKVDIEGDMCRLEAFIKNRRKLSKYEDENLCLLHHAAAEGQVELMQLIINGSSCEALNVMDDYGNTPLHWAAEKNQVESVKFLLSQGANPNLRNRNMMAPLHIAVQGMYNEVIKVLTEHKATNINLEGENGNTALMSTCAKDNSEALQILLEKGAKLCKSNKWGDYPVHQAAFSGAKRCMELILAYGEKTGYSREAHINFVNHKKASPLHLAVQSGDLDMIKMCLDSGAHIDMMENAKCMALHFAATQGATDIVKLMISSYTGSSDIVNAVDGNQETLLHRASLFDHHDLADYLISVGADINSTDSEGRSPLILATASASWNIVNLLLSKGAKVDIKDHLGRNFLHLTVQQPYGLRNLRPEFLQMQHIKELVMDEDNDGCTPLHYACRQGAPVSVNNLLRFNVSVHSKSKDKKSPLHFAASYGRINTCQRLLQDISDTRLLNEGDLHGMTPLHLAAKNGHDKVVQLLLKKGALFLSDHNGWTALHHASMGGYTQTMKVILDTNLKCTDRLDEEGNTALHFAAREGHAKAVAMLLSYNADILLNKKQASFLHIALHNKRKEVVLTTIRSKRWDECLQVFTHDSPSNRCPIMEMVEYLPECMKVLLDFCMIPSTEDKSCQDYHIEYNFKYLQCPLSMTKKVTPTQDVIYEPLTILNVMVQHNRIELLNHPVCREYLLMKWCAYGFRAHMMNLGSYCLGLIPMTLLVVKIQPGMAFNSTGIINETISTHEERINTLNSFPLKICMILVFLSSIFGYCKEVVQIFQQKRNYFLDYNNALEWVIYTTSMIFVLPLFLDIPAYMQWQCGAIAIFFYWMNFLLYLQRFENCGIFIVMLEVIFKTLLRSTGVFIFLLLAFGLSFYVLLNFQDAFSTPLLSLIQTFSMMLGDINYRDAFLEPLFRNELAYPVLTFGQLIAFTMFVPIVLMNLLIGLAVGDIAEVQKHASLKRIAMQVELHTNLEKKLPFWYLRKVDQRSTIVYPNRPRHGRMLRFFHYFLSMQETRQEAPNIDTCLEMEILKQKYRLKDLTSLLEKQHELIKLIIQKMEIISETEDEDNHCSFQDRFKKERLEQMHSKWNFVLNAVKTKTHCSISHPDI
inhibition at 1 µM [1] [%],inhibition at 10 µM [1] [%],IC50 [1] [nM],inhibition at 1 µM [2] [%],inhibition at 10 µM [2] [%],SMILES
89.3,91.4,< 50,12.7,87.6,"Cn1c(=O)c2c(CC(=O)Nc3nc(-c4cc(F)c(OC(F)F)c(F)c4)cs3)scc2n(C)c1=O [Example 59, N-{4-[4-(Difluoromethoxy)-3,5-difluorophenyl]-1,3-thiazol-2-yl}-2-(1,3-dimethyl-2,4-dioxo-1,2,3,4-tetrahydrothieno[3,4-d]pyrimidin-5-yl)acetamide]"
98,97.4,< 50,21,95.9,"Cn1c(=O)c2c(CC(=O)Nc3nc(-c4cc(F)c(OCC(F)(F)F)c(F)c4)cs3)scc2n(C)c1=O [Example 60, N-{4-[3,5-Difluoro-4-(2,2,2-trifluoro-ethoxy)phenyl]-1,3-thiazol-2-yl}-2-(1,3-dimethyl-2,4-dioxo-1,2,3,4-tetrahydrothieno[3,4-d]pyrimidin-5-yl)acetamide]"
